Tests used:
Test in all cases: AUC of viability dose-response curve (% viability x log10 dose units); higher = less sensitive
Conditions in all cases: 48 h
P12-Ichikawa = tested on: P12-Ichikawa
Outline: (§1)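 In 1536-well plates, leukemia cells adapted to each medium (500 or 1000 cells/well) were exposed for 48 h at 37°C to library compounds in DMSO across 11 threefold doses, 47 μM down to 0.79 nM. Viability was read by CellTiter-Glo One luminescence and normalised per plate to DMSO and cell-free wells. A four-parameter log-logistic fit over log10 doses was integrated by trapezoidal rule. This yielded the area under the curve, with over-full-viability curves scaled and quality-control failures dropped.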

SEM cells = tested on: SEM cells
Outline: as §1

NOMO1 = tested on: NOMO1
Outline: as §1

[1] = RPMI 5 mM glucose + 10% dialyzed FBS

Row | Structure (SMILES) | AUC of viability dose-response curve (P12-Ichikawa; HPLM + 10% dialyzed FBS) | AUC of viability dose-response curve (P12-Ichikawa; RPMI 5 mM glucose + 10% FBS) | AUC of viability dose-response curve (P12-Ichikawa; [1]) | AUC of viability dose-response curve (SEM cells; HPLM + 10% dialyzed FBS) | AUC of viability dose-response curve (SEM cells; RPMI 5 mM glucose + 10% FBS) | AUC of viability dose-response curve (SEM cells; [1]) | AUC of viability dose-response curve (NOMO1; HPLM + 10% dialyzed FBS) | AUC of viability dose-response curve (NOMO1; RPMI 5 mM glucose + 10% FBS) | AUC of viability dose-response curve (NOMO1; [1])
1 | CN1CC(=O)N2[C@H](c3ccc4c(c3)OCO4)c3[nH]c4ccccc4c3C[C@@H]2C1=O | 456 | 440 | 419 | 466 | 435 | 461 | 427 | 447 | 449
2 | Cc1cc2c(C(N)=O)cccc2n1-c1nc2c(c(NCc3ccccc3)n1)COCC2 | 330 | 322 | 334 | 295 | 310 | 312 | 312 | 315 | 293
3 | CNC(=O)c1ccc(Nc2cc(Nc3ccccc3[S+](=O)([O-])C(C)C)c3cc[nH]c3n2)nc1 | 367 | 355 | 377 | 319 | 345 | 323 | 422 | 407 | 414

Source: the supplement of paper PMC11451515
